Data on one compound can be found in patent publication US4383113A, “Agricultural sulfonamides” (E. I. Du Pont de Nemours and Company, priority 1981, dated 1983).

The test system of experiment [1] is purple nutsedge. In words: Test G soil incorporated. It counts as in vivo, Cyperus rotundus. The note with it: .032 kg/ha, low OM. An excerpt:
(§1) Purple nutsedge tubers (Cyperus rotundus, L.) were planted about 2 cm deep in Fallsington silt loam (about 1% organic matter from Delaware) and in Flanagan loam (about 4% organic matter) from Illinois. Five tubers were planted in each 10 cm diameter plastic pot. Treatments recorded in Table XVII were applied in three different ways, i.e., soil surface spray, tuber/soil spray and soil incorporated. In surface sprays, the material was sprayed on the firmed soil surface after planting, but before nutsedge emergence. In tuber/soil sprays, the material was sprayed on exposed tubers and subtending soil before the tubers were covered with untreated soil. Soil incorporated treatments were mixed in the covering soil.
(§2) Immediately after treating, the treated pots were misted with about 0.3 cm of water over a 90 minute period and placed in the greenhouse.

Experiment [2] deals with purple nutsedge. In words: Test G surface spray. The settings on record: high OM. The format is in vivo, Cyperus rotundus.
Text: as §1, §2

Regarding `COC(=O)c1ccccc1S(=O)(=O)NC(=O)Nc1nc(OC)cc(OC)n1` [drawing 607], the “response rating after 4 weeks” value in experiment [1] is given as 10C; in experiment [2] (.008 kg/ha) it was 0; in experiment [2] (.032 kg/ha) it was 10C.
